Patent US7994399B2, “Methods for the production of stably transformed, fertile Zea mays plants” (BASF Plant Science GmbH, priority 2005, dated 2011)
Marks after values point to notes of the source that are not given here.

Key:
[1] = system: Zea mays immature embryos; assay: Agrobacterium-mediated transformation of maize immature embryos, additives in the co-cultivation medium; format: cell-based; conditions: for Average TE (%) (transformation efficiency): L-cysteine added (+) to co-cultivation medium, split-cob design, drop inoculation
Description: Adjust pH media to 5.8 with 1 M NaOH. Weigh 4 g Sigma Purified Agar per bottle (8 g/L) and dispense 500 mL media per bottle, autoclave. When cooled add AgNO3 (stock at 15 mM) to a final concentration of 15 μM and L-cysteine (stock at 150 mg/ml) to a final concentration 300 mg/l. Pour into 100×20 mm Petri plates. Medium containing acetosyringone should be used freshly without long term storage.
Excised immature embryos are directly put on the co-cultivation medium (medium A-3) with the flat side down (scutellum upward). Each plate (20×100 mm plate) can hold up to 100 immature embryos. Put 5 μl of diluted Agrobacterium cell suspension to each immature embryo with a repeat pipettor. Remove excess moisture covering immature embryos by leaving the plate cover open in the hood for about 15 min. Seal the plate with 3M micropore tape and wrap with aluminum foil. Incubate the plate in the dark at 22° C. for 2 to 3 days. Take 3-5 immature embryos for GUS staining if a GUS construct is used to assess transient GUS expression.

Maize XA17 mutants = conditions: cited from earlier work
XI12 mutant maize lines = conditions: cited from earlier work
[2] = addition to co-cultivation medium, BPS553×(HiIIA×A188) genotypes

For `N[C@@H](CS)C(=O)O` [L-Cysteine], the “Effect on transformation efficiency” value [1, 2] was “further enhances transformation efficiency”, the “Average TE (%) (transformation efficiency)” value ([1]; hybrid BPS553x(HillAxA188), 20 experiments) was 32.2* % and the “Average TE (%) (transformation efficiency)” value ([1]; inbred BPS553, 27 experiments) was 9.6* %. The “Effect on transformation efficiency” value ([1]; presence in the co-cultivation medium) was “significantly increasing transformation efficiency”.

In the case of `CC(C)C1(C)N=C(c2nc3ccccc3cc2C(=O)O)NC1=O` (stereo not drawn) [imazaquin], the “Resistance or tolerance of the plants to the herbicide” value (Maize XA17 mutants) is given as “highly resistant” and the “Resistance or sensitivity of the plants to the herbicide” value (XI12 mutant maize lines) is given as “sensitive”.

For `O=[N+]([O-])[O-].[Ag+]` [silver nitrate], the “Effect on transformation efficiency” value [1, 2] was “further enhances transformation efficiency”.

For `CCc1cnc(C2=NC(C)(C(C)C)C(=O)N2)c(C(=O)O)c1` (stereo not drawn) [imazethapyr], the “Resistance or tolerance of the plants to the herbicide” value (Maize XA17 mutants) is listed as “highly resistant” and the “Resistance or sensitivity of the plants to the herbicide” value (XI12 mutant maize lines) is listed as “highly resistant”.
